According to the NIST ThermoML archive (doi:10.1016/j.jct.2012.06.012):
± gives the expanded uncertainty stated by the source.

Assay: xn = mol fraction of the nth substance listed
Conditions: Liquid, Vibrating tube method

CCCCCCCCCC [decane] + CCO
Conditions | mass density [kg/m3]
362.64 K, 11000 kPa, x2 = 0.1011 | 686.5 ± 0.38
362.64 K, 11000 kPa, x2 = 0.4963 | 692.75 ± 0.37
362.64 K, 11000 kPa, x2 = 0.9014 | 719.95 ± 0.35
362.64 K, 12000 kPa, x2 = 0.1011 | 687.56 ± 0.4
362.64 K, 12000 kPa, x2 = 0.4963 | 693.89 ± 0.39
362.64 K, 12000 kPa, x2 = 0.9014 | 721.13 ± 0.36
362.64 K, 13000 kPa, x2 = 0.1011 | 688.62 ± 0.41
362.64 K, 13000 kPa, x2 = 0.4963 | 694.99 ± 0.4
362.64 K, 13000 kPa, x2 = 0.9014 | 722.28 ± 0.37
362.64 K, 14000 kPa, x2 = 0.1011 | 689.68 ± 0.43
362.64 K, 14000 kPa, x2 = 0.4963 | 696.14 ± 0.42
362.64 K, 14000 kPa, x2 = 0.9014 | 723.43 ± 0.38
362.64 K, 15000 kPa, x2 = 0.1011 | 690.66 ± 0.44
362.64 K, 15000 kPa, x2 = 0.4963 | 697.17 ± 0.43
362.64 K, 15000 kPa, x2 = 0.9014 | 724.55 ± 0.39
362.64 K, 16000 kPa, x2 = 0.1011 | 691.66 ± 0.45
362.64 K, 16000 kPa, x2 = 0.4963 | 698.23 ± 0.44
362.64 K, 16000 kPa, x2 = 0.9014 | 725.65 ± 0.41
362.64 K, 17000 kPa, x2 = 0.1011 | 692.65 ± 0.47
362.64 K, 17000 kPa, x2 = 0.4963 | 699.27 ± 0.46
362.64 K, 17000 kPa, x2 = 0.9014 | 726.75 ± 0.42
362.64 K, 18000 kPa, x2 = 0.1011 | 693.62 ± 0.48
362.64 K, 18000 kPa, x2 = 0.4963 | 700.3 ± 0.47
362.64 K, 18000 kPa, x2 = 0.9014 | 727.82 ± 0.43
362.64 K, 19000 kPa, x2 = 0.1011 | 694.56 ± 0.5
362.64 K, 19000 kPa, x2 = 0.4963 | 701.3 ± 0.48
362.64 K, 19000 kPa, x2 = 0.9014 | 728.87 ± 0.44
362.64 K, 20000 kPa, x2 = 0.1011 | 695.5 ± 0.51
362.64 K, 20000 kPa, x2 = 0.4963 | 702.3 ± 0.5
362.64 K, 20000 kPa, x2 = 0.9014 | 729.9 ± 0.45
362.65 K, 1000 kPa, x2 = 0.0937 | 675.13 ± 0.23
362.65 K, 2000 kPa, x2 = 0.0937 | 676.3 ± 0.25
362.65 K, 3000 kPa, x2 = 0.0937 | 677.46 ± 0.26
362.65 K, 4000 kPa, x2 = 0.0937 | 678.6 ± 0.28
362.65 K, 5000 kPa, x2 = 0.0937 | 679.76 ± 0.29
362.65 K, 6000 kPa, x2 = 0.0937 | 680.91 ± 0.31
362.65 K, 7000 kPa, x2 = 0.0937 | 682.04 ± 0.32
362.65 K, 8000 kPa, x2 = 0.0937 | 683.16 ± 0.34
362.65 K, 9000 kPa, x2 = 0.0937 | 684.25 ± 0.35
362.65 K, 10000 kPa, x2 = 0.0937 | 685.35 ± 0.37
362.65 K, 11000 kPa, x2 = 0.0937 | 686.41 ± 0.38
362.65 K, 12000 kPa, x2 = 0.0937 | 687.48 ± 0.4
362.65 K, 13000 kPa, x2 = 0.0937 | 688.51 ± 0.41
362.65 K, 14000 kPa, x2 = 0.0937 | 689.55 ± 0.43
362.65 K, 15000 kPa, x2 = 0.0937 | 690.57 ± 0.44
362.65 K, 16000 kPa, x2 = 0.0937 | 691.56 ± 0.45
362.65 K, 17000 kPa, x2 = 0.0937 | 692.56 ± 0.47
362.65 K, 18000 kPa, x2 = 0.0937 | 693.53 ± 0.48
362.65 K, 19000 kPa, x2 = 0.0937 | 694.47 ± 0.5
362.65 K, 20000 kPa, x2 = 0.0937 | 695.39 ± 0.51
362.71 K, 1000 kPa, x2 = 0.7526 | 692.67 ± 0.22
362.71 K, 2000 kPa, x2 = 0.7526 | 693.99 ± 0.24
362.71 K, 3000 kPa, x2 = 0.7526 | 695.3 ± 0.25
362.71 K, 4000 kPa, x2 = 0.7526 | 696.58 ± 0.26
362.71 K, 5000 kPa, x2 = 0.7526 | 697.86 ± 0.28
362.71 K, 6000 kPa, x2 = 0.7526 | 699.12 ± 0.29
362.71 K, 7000 kPa, x2 = 0.7526 | 700.37 ± 0.31
362.71 K, 8000 kPa, x2 = 0.7526 | 701.6 ± 0.32
362.71 K, 9000 kPa, x2 = 0.7526 | 702.81 ± 0.33
362.71 K, 10000 kPa, x2 = 0.7526 | 704.01 ± 0.35
362.71 K, 11000 kPa, x2 = 0.7526 | 705.19 ± 0.36
362.71 K, 12000 kPa, x2 = 0.7526 | 706.37 ± 0.37
362.71 K, 13000 kPa, x2 = 0.7526 | 707.51 ± 0.39
362.71 K, 14000 kPa, x2 = 0.7526 | 708.68 ± 0.4
362.71 K, 15000 kPa, x2 = 0.7526 | 709.76 ± 0.41
362.71 K, 16000 kPa, x2 = 0.7526 | 710.84 ± 0.43
362.71 K, 17000 kPa, x2 = 0.7526 | 711.92 ± 0.44
362.71 K, 18000 kPa, x2 = 0.7526 | 712.98 ± 0.45
362.71 K, 19000 kPa, x2 = 0.7526 | 714.02 ± 0.46
362.71 K, 20000 kPa, x2 = 0.7526 | 715.03 ± 0.48
362.8 K, 1000 kPa, x2 = 0.2507 | 676.12 ± 0.23
362.8 K, 2000 kPa, x2 = 0.2507 | 677.34 ± 0.25
362.8 K, 3000 kPa, x2 = 0.2507 | 678.55 ± 0.26
362.8 K, 4000 kPa, x2 = 0.2507 | 679.73 ± 0.28
362.8 K, 5000 kPa, x2 = 0.2507 | 680.92 ± 0.29
362.8 K, 6000 kPa, x2 = 0.2507 | 682.09 ± 0.31
362.8 K, 7000 kPa, x2 = 0.2507 | 683.25 ± 0.32
362.8 K, 8000 kPa, x2 = 0.2507 | 684.4 ± 0.34
362.8 K, 9000 kPa, x2 = 0.2507 | 685.54 ± 0.35
362.8 K, 10000 kPa, x2 = 0.2507 | 686.66 ± 0.37
362.8 K, 11000 kPa, x2 = 0.2507 | 687.77 ± 0.38
362.8 K, 12000 kPa, x2 = 0.2507 | 688.85 ± 0.39
362.8 K, 13000 kPa, x2 = 0.2507 | 689.91 ± 0.41
362.8 K, 14000 kPa, x2 = 0.2507 | 691.02 ± 0.42
362.8 K, 15000 kPa, x2 = 0.2507 | 692.02 ± 0.44
362.8 K, 16000 kPa, x2 = 0.2507 | 693.05 ± 0.45
362.8 K, 17000 kPa, x2 = 0.2507 | 694.06 ± 0.46
362.8 K, 18000 kPa, x2 = 0.2507 | 695.04 ± 0.48
362.8 K, 19000 kPa, x2 = 0.2507 | 696.01 ± 0.49
362.8 K, 20000 kPa, x2 = 0.2507 | 696.96 ± 0.51
